Assay results as given in ChEMBL document CHEMBL5620386, “Synthesis, biological screening and in silico studies of new N-phenyl-4-(1,3-diaryl-1H-pyrazol-4-yl)thiazol-2-amine derivatives as potential antifungal and antitubercular agents” (Eur J Med Chem, 2023).
Values after ≈ are worked out from the molar mass of the structure shown. Values joined by “and” are separate entries in the source; they are usually repeats but may differ in a detail not shown here. Equal values may be shown once. Active and inactive are the calls of the source. The calls are words filed in the database; no cut-off is given here.

Legend:
[1] = tested on: Escherichia coli; assay: Antimicrobial activity against Escherichia coli NCIM 2574 assessed as zone of inhibition by well diffusion method; format: functional
[2] = tested on: Proteus mirabilis; assay: Antimicrobial activity against Proteus mirabilis NCIM 2388 assessed as zone of inhibition by well diffusion method; format: functional
[3] = tested on: Bacillus subtilis; assay: Antimicrobial activity against Bacillus subtilis NCIM 2063 assessed as zone of inhibition by well diffusion method; format: functional
[4] = tested on: Staphylococcus aureus; assay: Antimicrobial activity against Staphylococcus aureus NCIM 2178 assessed as zone of inhibition by well diffusion method; format: functional
[5] = tested on: Candida albicans; assay: Antifungal activity against Candida albicans NCIM 3100 assessed as zone of inhibition by well diffusion method; format: functional
[6] = tested on: Aspergillus niger; assay: Antifungal activity against Aspergillus niger ATCC 504 assessed as zone of inhibition by well diffusion method; format: functional
[7] = tested on: Proteus mirabilis; assay: Antimicrobial activity against Proteus mirabilis NCIM 2388 assessed as absence of growth by well diffusion method; format: functional
[8] = tested on: Staphylococcus aureus; assay: Antimicrobial activity against Staphylococcus aureus NCIM 2178 assessed as absence of growth by well diffusion method; format: functional
[9] = tested on: Aspergillus niger; assay: Antifungal activity against Aspergillus niger ATCC 504 assessed as absence of growth by well diffusion method; format: functional
[10] = tested on: Mycobacterium tuberculosis; assay: Antitubercular activity Mycobacterium tuberculosis H37Rv strain ATCC No- 27294 assessed as prevention of color change from blue to pink using Almar Blue measured after 24 hrs by MABA assay; format: functional
[11] = Cytotoxicity against mouse 3T3-L1 cells assessed as cell viability at 12.5 ug/ml measured after 24 hrs by MTT assay relative to control; format: toxicity, cell-based; conditions: at 12.5 µg/mL, read-out: Activity
[12] = Cytotoxicity against mouse 3T3-L1 cells assessed as cell viability at 25 ug/ml measured after 24 hrs by MTT assay relative to control; format: toxicity, cell-based; conditions: at 25 µg/mL, read-out: Activity

| SMILES | inhibition zone (IZ) [1] | inhibition zone (IZ) [2] [mm] | inhibition zone (IZ) [3] [mm] | inhibition zone (IZ) [4] [mm] | inhibition zone (IZ) [5] [mm] | inhibition zone (IZ) [6] [mm] | MIC [7] [µg/mL] | MIC [8] | MIC [9] | MIC [10] | viability at 24 h, 12.5 ug/ml [11] [%] | viability at 24 h, 25 ug/ml [12] [%] |
| --- | --- | --- | --- | --- | --- | --- | --- | --- | --- | --- | --- | --- |
| COc1ccc(Nc2nc(-c3cn(-c4ccccc4)nc3-c3ccc(C)cc3)cs2)cc1 | inactive | 15 | 12.4 | 14 | 10.6 | 18.6 | 125 (≈ 285 µM) | 125 µg/mL (≈ 285 µM) | 15.6 µg/mL and 35.7 µM | 50 µg/mL and 114 µM | 97.5 | 90.5 |
| Cc1ccc(Nc2nc(-c3cn(-c4ccc(F)cc4)nc3-c3ccc(Cl)cc3)cs2)cc1 | inactive | 15 | 12.2 | 17 | 10.8 | 20.2 | 125 (≈ 271 µM) | 62.5 µg/mL and 136 µM | 15.6 µg/mL and 34 µM | 1.6 µg/mL and 3.47 µM | 72 | 91.3 |
| CO[C@H]1/C=C/O[C@@]2(C)Oc3c(C)c(O)c4c(O)c(c(/C=N/N5CCN(C)CC5)c(O)c4c3C2=O)NC(=O)/C(C)=C\C=C\[C@H](C)[C@H](O)[C@@H](C)[C@@H](O)[C@@H](C)[C@H](OC(C)=O)[C@@H]1C [RIFAMPIN] | – | – | – | – | – | – | – | – | – | 0.8 µg/mL and 0.972 µM | – | – |
| c1ccc(Nc2nc(-c3cn(-c4ccccc4)nc3-c3ccccc3)cs2)cc1 | inactive | 15 | 11.2 | 16 | 11.2 | 18.8 | 125 (≈ 317 µM) | 62.5 µg/mL and 1590 µM | 15.6 µg/mL and 39.6 µM | 1.6 µg/mL and 4.06 µM | 97.5 | 90.5 |
| Cc1ccc(Nc2nc(-c3cn(-c4ccccc4)nc3-c3ccc(C)cc3)cs2)cc1 | inactive | 15 | 13.2 | 13 | 11.4 | 18 | 125 (≈ 296 µM) | – | 15.6 µg/mL and 37 µM | 1.6 µg/mL and 3.79 µM | 70.1 | – |
| Fc1ccc(-n2cc(-c3csc(Nc4ccccc4)n3)c(-c3ccc(Cl)cc3)n2)cc1 | inactive | 14.2 | 13.4 | 15 | 11 | 18.2 | 125 (≈ 280 µM) | 125 µg/mL (≈ 280 µM) | 15.6 µg/mL and 35 µM | 1.6 µg/mL and 3.58 µM | 69.2 | 62.6 |
| COc1ccc(Nc2nc(-c3cn(-c4ccc(F)cc4)nc3-c3ccc(Cl)cc3)cs2)cc1 | inactive | 13.2 | 12.2 | 15 | 11.4 | 18.8 | – | 125 µg/mL (≈ 262 µM) | 15.6 µg/mL and 32.8 µM | 1.6 µg/mL and 3.36 µM | 72.9 | 63.1 |
| COc1ccc(Nc2nc(-c3cn(-c4ccccc4)nc3-c3ccccc3)cs2)cc1 | inactive | 14.2 | 12.75 | 15 | 11.6 | 20 | 125 (≈ 294 µM) | 125 µg/mL (≈ 294 µM) | 15.6 µg/mL and 36.8 µM | 25 µg/mL and 58.9 µM | – | – |
| COc1ccc(Nc2nc(-c3cn(-c4ccc(F)cc4)nc3-c3ccccc3)cs2)cc1 | inactive | 13.8 | 12.4 | 15 | 10.4 | 19.2 | – | 125 µg/mL (≈ 282 µM) | 15.6 µg/mL and 35.3 µM | 3.12 µg/mL and 7.07 µM | 98.2 | 97.2 |
| Clc1ccc(Nc2nc(-c3cn(-c4ccccc4)nc3-c3ccccc3)cs2)cc1 | inactive | 14.8 | 12.2 | 15.8 | 11.2 | 19.2 | 125 (≈ 291 µM) | 62.5 µg/mL and 146 µM | 15.6 µg/mL and 36.5 µM | 25 µg/mL and 58.4 µM | – | – |
| Clc1ccc(-c2nn(-c3ccccc3)cc2-c2csc(Nc3ccccc3)n2)cc1 | inactive | 15.2 | 12 | 14 | 11 | 17.4 | 125 (≈ 291 µM) | 125 µg/mL (≈ 291 µM) | 31.2 µg/mL and 72.8 µM | 25 µg/mL and 58.4 µM | – | – |
